Common to all, as to assay type: cell-based
One experiment relates to HTT mRNA. As to the kind of experiment: Splicing assay (RT-qPCR) of HTT mRNA alternative junction (AJ) and canonical junction (CJ). To be noted: A673 or K562 cells, 24 hours; for IC50: decrease in CJ mRNA, read-out: HTT CJ IC50; for AC50: increase in AJ mRNA, read-out: HTT AJ AC50. As to the method:
Compounds described herein were used to modulate RNA transcript abundance in cells. The expression of a target mRNA was measured by detecting the formation of an exon-exon junction in the canonical transcript (CJ). A compound mediated exon-inclusion event was detected by observing an increase in formation of a new junction with an alternative exon (AJ). Real-time qPCR assays were used to detect these splicing switches and interrogate the potency of various compounds towards different target genes. A high-throughput real time quantitative PCR (RT-qPCR) assay was developed to measure these two isoforms of the mRNA (CJ and AJ) for an exemplary gene, HTT, together with a control housekeeping gene, GAPDH or GUSB or PPIA, used for normalization. Briefly, the A673 or K562 cell line was treated with various compounds described herein (e.g., compounds of Formula (I) or (II)). After treatment, the levels of the HTT mRNA targets were determined from each sample of cell lysate by cDNA synthesis followed by qPCR.
Materials: • Cells-to-CT 1-step kit: ThermoFisher A25602, Cells-to-CT lysis reagent: ThermoFisher 4391851C, TagMan™ Fast Virus 1-Step Master Mix: ThermoFisher 4444436 • GAPDH: VIC-PL, ThermoFisher 4326317E (Assay: Hs99999905_ml)—used for K562/suspension cell lines • GUSB: VIC-PL, ThermoFisher 4326320E (Assay: Hs99999908 ml)—used for K562/suspension cell lines • PPIA: VIC-PL, ThermoFisher 4326316E (Assay: Hs99999904 ml)—used for A673/adherent cell lines
The A673 cell line was cultured in DMEM with 10% FBS. Cells were diluted with full growth media and plated in a 96-well plate (15,000 cells in 100 ul media per well). The plate was incubated at 37° C. with 5% CO2 for 24 hours to allow cells to adhere. An 11-point 3-fold serial dilution of the compounds was made in DMSO then diluted in media in an intermediate plate. Compounds were transferred from the intermediate plate to the cell plate with the top dose at a final concentration of 10 uM in the well. Final DMSO concentration was kept at or below 0.25%. The cell plate was returned to the incubator at 37° C. with 5% CO2 for an additional 24 hours.
The K562 cell line was cultured in IMDM with 10% FBS. For K562, cells were diluted with full growth media and plated in either a 96-well plate (50,000 cells in 50 uL media per well) or a 384-well plate (8,000-40,000 cells in 45 uL media per well). An 11-point 3-fold serial dilution of the compounds were made in DMSO then diluted in media in an intermediate plate. Compound was transferred from the intermediate plate to the cell plate with the top dose at a final concentration of 10 uM in the well. Final DMSO concentration was kept at or below 0.25%. Final volume was 100 uL for 96-well plate and 50 uL for 384-well plate. The cell plate was then placed in an incubator at 37° C. with 5% CO2 for 24 hours.
The cells were then gently washed with 50 uL-100 uL cold PBS before proceeding to addition of lysis buffer. 30 uL-50 uL of room temperature lysis buffer with DNAse I (and optionally RNAsin) was added to each well. Cells were shaken/mixed thoroughly at room temperature for 5-10 minutes for lysis to take place and then 3 uL-5 uL of room temperature stop solution was added and wells were shaken/mixed again. After 2-5 minutes, the cell lysate plate was transferred to ice for RT-qPCR reaction setup. The lysates could also be frozen at −80° C. for later use.
In some cases, a direct lysis buffer was used. An appropriate volume of 3X lysis buffer (10 mM Tris, 150 mM NaCl, 1.5%-2.5% Igepal and 0.1-1 U/uL RNAsin, pH 7.4) was directly added to either K562 or A673 cells in media and mixed by pipetting 3 times. The plates were then incubated at room temperature with shaking/rocking for 20-50 minutes to allow for lysis to take place. After this time, the cell lysate plate was transferred to ice to set up for the RT-qPCR reactions. The lysates could also be frozen at −80° C. for later use. […]
Background: Quantitative PCR measures a nucleic acid by following its amplification.

In the next experiment the test system is HTT CJ mRNA. As to the kind of experiment: Gene panel canonical junction qPCR splicing assay, HTT. Conditions: Table 4, read-out: HTT IC50 (decrease in CJ mRNA levels). How it is done: (§1) Compounds described herein were used to modulate RNA transcript abundance in cells. The expression of a target mRNA was measured by detecting the formation of an exon-exon junction in the canonical transcript (CJ). A compound mediated exon-inclusion event was detected by observing an increase in formation of a new junction with an alternative exon (AJ). Real-time qPCR assays were used to detect these splicing switches and interrogate the potency of various compounds towards different target genes. A high-throughput real time quantitative PCR (RT-qPCR) assay was developed to measure these two isoforms of the mRNA (CJ and AJ) for an exemplary gene, HTT, together with a control housekeeping gene, GAPDH or GUSB or PPIA, used for normalization. Briefly, the A673 or K562 cell line was treated with various compounds described herein (e.g., compounds of Formula (I) or (II)). After treatment, the levels of the HTT mRNA targets were determined from each sample of cell lysate by cDNA synthesis followed by qPCR. The data analysis was performed by first determining the ΔCt vs the housekeeper gene. This ΔCt was then normalized against the DMSO control (ΔΔCt) and converted to RQ (relative quantification) using the 2^(−ΔΔCt) equation. The RQ were then converted to a percentage response by arbitrarily setting an assay window of 3.5 ΔCt for HTT-CJ and an assay window of 9 ΔCt for HTT-AJ. […] The percentage response was then fitted to the 4 parametric logistic equation to evaluate the concentration dependence of compound treatment. The increase in AJ mRNA is reported as AC50 (compound concentration having 50% response in AJ increase) while the decrease in CJ mRNA levels is reported as IC50 (compound concentration having 50% response in CJ decrease). Additional studies were carried out for a larger panel of genes using the protocol provided above. The junction between flanking upstream and downstream exons was used to design canonical junction qPCR assays. At least one of the forward primer, reverse primer or the CY5-labeled 5′ nuclease probe (with 3′ quencher such as ZEN/Iowa Black FQ) was designed to overlap with the exon junction to capture the CJ mRNA transcript. BLAST was used to confirm the specificity of the probeset and parameters such as melting temperature, GC content, amplicon size, and primer dimer formation are considered during their design. Data for the decrease in CJ mRNA levels for three exemplary genes (HTT, SMN2, and Target C) analyzed in this panel are reported as IC50 (compound concentration having 50% response in CJ decrease).

For the next experiment, the system named is SMN2 CJ mRNA. As to the kind of experiment: Gene panel canonical junction qPCR splicing assay, SMN2. To be noted: Table 4, read-out: SMN2 IC50 (decrease in CJ mRNA levels). How it is done: as §1
A further experiment relates to Target C CJ mRNA. Put plainly: Gene panel canonical junction qPCR splicing assay, Target C. To be noted: Table 4, read-out: Target C IC50 (decrease in CJ mRNA levels). How it is done: as §1

The values that follow come from patent publication US20240002375A1, “2-(INDAZOL-5-YL)-6-(PIPERIDIN-4-YL)-1,7-NAPHTHYRIDINE DERIVATIVES AND RELATED COMPOUNDS AS MODULATORS FOR SPLICING NUCLEIC ACIDS AND FOR THE TRE” (REMIX THERAPEUTICS INC., priority 2020, published 2024).

The term IC50 denotes the midpoint of a concentration-inhibition curve. In general, AC50 refers to the midpoint of the concentration-response curve, whichever way the signal moves. Consider `Cc1c(O)c(-c2ccc3nc(N4CCC(NC5(C)CC5)C4)ccc3n2)cc2cn(C)nc12` (racemic) [Compound 224, 2,7-dimethyl-5-(6-{3-[(1-methylcyclopropyl)amino]pyrrolidin-1-yl}-1,5-naphthyridin-2-yl) indazol-6-ol], for which the IC50 in the experiment with HTT mRNA, in the experiment with HTT CJ mRNA, in the experiment with SMN2 CJ mRNA and with Target C CJ mRNA was less than 100 nM in each case. Besides, the AC50 in the experiment with HTT mRNA was less than 100 nM.
For the compound `C[C@H]1C[C@H](c2ccc3nc(-c4cc5cn(C)nc5cc4O)ccc3n2)CCN1` (relative stereo) [Compound 139, 2-methyl-5-[6-[(2S,4R)-2-methylpiperidin-4-yl]-1,5-naphthyridin-2-yl]indazol-6-ol], the IC50 was less than 100 nM with HTT mRNA, less than 100 nM with HTT CJ mRNA, less than 100 nM with SMN2 CJ mRNA and 100 to 1000 nM in the experiment with Target C CJ mRNA. Further, in the experiment on HTT mRNA, the AC50 is less than 100 nM.
Take `C[C@H]1C[C@@H](c2ccc3nc(-c4cc5cn(C)nc5cc4O)ccc3n2)CCN1` (relative stereo) [Compound 140, 2-methyl-5-[6-[(2S,4S)-2-methylpiperidin-4-yl]-1,5-naphthyridin-2-yl]indazol-6-ol]: the IC50 is less than 100 nM in the experiment on HTT mRNA, less than 100 nM with HTT CJ mRNA, less than 100 nM with SMN2 CJ mRNA and 100 to 1000 nM with Target C CJ mRNA. Further, in the experiment with HTT mRNA, the AC50 lay within 100 to 1000 nM.
As to `Cc1nc2cc(O)c(-c3ccc4nc(N5CC[C@H](NC6CC6)C5)ccc4n3)cc2o1` (single isomer, unassigned) [Compound 211, 6-{6-[3-(cyclopropylamino)pyrrolidin-1-yl]-1,5-naphthyridin-2-yl}-2-methyl-1,3-benzoxazol-5-ol], the IC50 in the experiment on HTT mRNA is less than 100 nM; in the experiment on HTT CJ mRNA, less than 100 nM; in the experiment on SMN2 CJ mRNA, less than 100 nM; in the experiment with Target C CJ mRNA, 100 to 1000 nM. Besides, in the experiment with HTT mRNA, the AC50 is less than 100 nM.
On to `Cc1nc2cc(O)c(-c3ccc4nc(N5CC[C@@H](NC6CC6)C5)ccc4n3)cc2o1` (single isomer, unassigned) [Compound 212, 6-{6-[3-(cyclopropylamino)pyrrolidin-1-yl]-1,5-naphthyridin-2-yl}-2-methyl-1,3-benzoxazol-5-ol], for which the IC50 with HTT mRNA was less than 100 nM; with HTT CJ mRNA, less than 100 nM; with SMN2 CJ mRNA it was less than 100 nM; in the experiment with Target C CJ mRNA, 100 to 1000 nM. Further, the half-maximal activity concentration (AC50) in the experiment with HTT mRNA is less than 100 nM.
Turning to `Cc1nc2c(C)c(O)c(-c3ccc4nc(N5CCC(NC(C)(C)C)C5)ccc4n3)cc2o1` (single isomer, unassigned) [Compound 214, 6-{6-[3-(tert-butylamino)pyrrolidin-1-yl]-1,5-naphthyridin-2-yl}-2,4-dimethyl-1,3-benzoxazol-5-ol], the IC50 with HTT mRNA, with HTT CJ mRNA, in the experiment with SMN2 CJ mRNA and in the experiment on Target C CJ mRNA was less than 100 nM each time. The AC50 with HTT mRNA is less than 100 nM.
Regarding `Cc1nc2c(C)c(O)c(-c3ccc4nc(N5CC[C@@H](NC(C)(C)C)C5)ccc4n3)cc2o1` (single isomer, unassigned) [Compound 215, 6-{6-[3-(tert-butylamino)pyrrolidin-1-yl]-1,5-naphthyridin-2-yl}-2,4-dimethyl-1,3-benzoxazol-5-ol], the IC50 with HTT mRNA, in the experiment with HTT CJ mRNA, with SMN2 CJ mRNA and in the experiment on Target C CJ mRNA was less than 100 nM throughout. In addition, the AC50 in the experiment with HTT mRNA was less than 100 nM.
For the compound `Cc1nc2c(C)c(O)c(-c3ccc4nc(N5CCC(NC6CC6)C5)ccc4n3)cc2o1` (single isomer, unassigned) [Compound 216, 6-{6-[3-(cyclopropylamino)pyrrolidin-1-yl]-1,5-naphthyridin-2-yl}-2,4-dimethyl-1,3-benzoxazol-5-ol], the IC50 in the experiment with HTT mRNA, with HTT CJ mRNA, in the experiment with SMN2 CJ mRNA and with Target C CJ mRNA was less than 100 nM in each case. Also, the AC50 with HTT mRNA is less than 100 nM.
As for `Cc1nc2c(C)c(O)c(-c3ccc4nc(N5CCC(NC6CC6)C5)ccc4n3)cc2o1` (single isomer, unassigned) [Compound 217, 6-{6-[3-(cyclopropylamino)pyrrolidin-1-yl]-1,5-naphthyridin-2-yl}-2,4-dimethyl-1,3-benzoxazol-5-ol], the IC50 in the experiment on HTT mRNA, in the experiment on HTT CJ mRNA, in the experiment on SMN2 CJ mRNA and in the experiment on Target C CJ mRNA was less than 100 nM throughout. Also, the AC50 in the experiment with HTT mRNA is less than 100 nM.
`Cn1cc2cc(-c3ccc4nc(N5CC[C@@H](NC6(C)CC6)C5)ccc4n3)c(O)cc2n1` (single isomer, unassigned) [Compound 220]: the concentration for half-maximal inhibition (IC50) in the experiment on HTT mRNA, in the experiment on HTT CJ mRNA, in the experiment on SMN2 CJ mRNA and in the experiment on Target C CJ mRNA was less than 100 nM in each case. In addition, the AC50 in the experiment on HTT mRNA was less than 100 nM.
For `CN1CCC12CCN(c1ccc3nc(-c4cc5cn(C)nc5cc4O)ccc3n1)C2` (stereo not shown) [Compound 181, 2-methyl-5-(6-{1-methyl-1,6-diazaspiro[3.4]octan-6-yl}-1,5-naphthyridin-2-yl) indazol-6-ol], in the experiment with HTT mRNA, the IC50 fell in the range of 100 to 1000 nM.
Consider `Cn1cc2cc(-c3ccc4nc(N5CCC(NC(C)(C)C)C5)ccc4n3)c(F)cc2n1` (stereo not shown) [Compound 183], for which the IC50 in the experiment on HTT mRNA was more than 10000 nM.
